Experimental data reported in patent US9611223B2, “3-aryl-5-substituted-isoquinolin-1-one compounds and their therapeutic use” (INSTITUTE OF CANCER RESEARCH: ROYAL CANCER HOSPITAL (THE), priority 2013, dated 2017).
Where two headings read alike, the source gives them in different places.

How the values were obtained:
TNKS1 = biological target: T1, TNKS1 (Homo sapiens, UniProt O95271, M1266I); experiment: TNKS1/PARP Biochemical Assay
T1 construct: expresses the active PARP domain of TNKS1 as a polyhistidine tagged protein; made in house; host or cells: E. coli Rosetta2(DE3)
Experimental: TNKS1/PARP Biochemical Assay
Tankyrase activity was assayed using a 96-well format HT Universal Chemiluminescent PARP Assay Kit (Trevigen, Inc, cat. no. 4676-096-K) according to the manufacturer's instructions. In short, tankyrase/PARP activity is quantified by the incorporation of biotinylated nicotinamide adenine dinucleotide (biotin-NAD^+) onto the immobilised pseudo substrate, Histone. The extent of poly(Biotin-ADP)ribosylation (PARylation) in the presence of increasing dose of inhibitor is then quantified by binding of streptavidin conjugated horse radish peroxidase (strep-HRP) followed by chemiluminescent detection.
Prior to assay initiation, inhibitor stocks were prepared in aqueous DMSO (10% (v/v)) from 5 millimolar (mM) stock in 100% DMSO (Sigma Aldrich, cat. no. 265855) as 10× concentrations. For the primary assay (i.e., single dose at 1 micromolar (μM) final concentration) this corresponded to 10 μM in 10% DMSO. For IC50 determination, this corresponded to 100 μM, 30 μM, 10 μM, 3.0 μM, 1.0 μM, 0.30 μM, 0.10 μM and 0 μM in 10% DMSO for final concentrations of 10 μM, 3.0 μM, 1.0 μM, 0.30 μM, 0.10 μM, 0.030 μM, 0.010 μM, and 0 μM with 1% (v/v) final DMSO. The assay was initiated by the addition of 10× inhibitor (5 microliters (μL)) or 10% aqueous DMSO (5 μL) to triplicate wells. Twenty microliters of diluted TNKS1 protein (200 nanomolar (nM) final conc.) in PARP buffer (Trevigen, Inc, cat. no. 4671-096-02) was added to each histone coated well, which was previously hydrated with PARP buffer. Triplicate wells with 1% DMSO/buffer alone (no enzyme) were also added as a measure of assay ‘noise’. Positive control for PARP inhibition included the addition of 4-amino-1,8-naphthalimide (Sigma Aldrich, cat. no A0966) in corresponding doses.
The mixture was incubated for 10 minutes at room temperature and the PARylation reaction initiated by the addition of PARP cocktail (25 μL, Trevigen, Inc) containing biotin-NAD^+ (Trevigen, Inc, cat. no. 4670-500-01), activated DNA (Trevigen, Inc, cat. no. 4671-096-06) and PARP buffer. The reaction was incubated for 1.5 hours (for TNKS1) or 1 hour (for PARP1) at room temperature. The reaction mixture was then removed by aspiration and the wells washed (3×200 μL) with phosphate buffered saline containing Triton X-100 (0.1% (v/v), Sigma Aldrich cat. no. T8787). The wells were then washed (3×200 μL) with phosphate buffered saline and then incubated with strep-HRP (50 μL, Trevigen, Inc, cat. no. 4800-30-06) in strep-diluent (1:500 dilution, Trevigen Inc, cat. no. 4671-096-04) for 1 hour at room temperature. The Strep-HRP mixture was then aspirated and the wells washed (3×200 μL) with phosphate buffered saline containing Triton X-100 (0.1% (v/v)) followed by phosphate buffered saline (3×200 μL) and then incubated with PeroxyGlow™ reagent (100 μL, Trevigen, Inc, cat. nos. 4675-096-01, 4675-096-02, room temperature, mixed 1:1).
The amount of light emitted as a result of the peroxidase-chemiluminescent reagent reaction was in proportion to the extent of poly(Biotin-ADP)ribosylation and was immediately measured with a Victor^2 plate reader (Perkin Elmer, luminescence detection assay, luminescent units described as ‘Counts Per Second’ (CPS)). The data were normalised to the DMSO control after subtraction of ‘noise’ and was expressed as % PARP activity as a function of inhibitor dose. Inhibition was expressed as 100%−(% PARP activity). Dose response curves used to determine IC50 values were Log transformed and analysed by non-linear regression analysis (variable slope) using Prism (GraphPad Software, Inc) and were presented as IC50 with 95% confidence interval to determine relative potency.
Tankyrase1 (pNIC-Bsa4-TNKS1^PARP) expression construct was obtained from the Structural Genomics Consortium (SGC) and expresses the active PARP domain of TNKS1 as a polyhistidine tagged protein. […]

Wnt signalling = experiment: Wnt-Luciferase Reporter Assay; type: cell-based; conditions: DLD1-Wnt-Luc cells, 20-22 hours
Experimental: Wnt-Luciferase Reporter Assay
A Wnt dependent cell line (i.e., DLD1 colorectal adenocarcinoma cell line) was transduced with replication incompetent VSV-g pseudotyped lentiviral particles expressing the firefly luciferase gene under the control of minimal cytomegalovirus (mCMV) promoter and tandem repeats of the TCF/LEF transcriptional response element.
DLD1-Wnt-Luc cells were seeded (5000 cells/well) in a 96-well plate (Greiner Bio-One, cat. no. 655098) in Dubelco's Modified Eagle Medium (DMEM, SFBCO/Invitrogen, cat no. 41965-039) supplemented with Fetal Bovine Serum (FBS, 10%, SFBCO/Invitrogen, cat no. 10108-165). After overnight incubation, the media was replaced with OptiMEM (SFBCO/Invitrogen, cat no. 11058-021) supplemented with FBS (0.5%) and non-essential amino acids (1%, SFBCO/Invitrogen, cat no. 11140-035) and the appropriate putative TNKS inhibitor at a final concentration of 10 μM, 3 μM, 1 μM, 0.30 μM, 0.10 μM, 0.030 μM, 0.010 μM and 0 μM with 1% (v/v) final DMSO in double-triplicate wells. Positive control includes the use of XAV-939 (Maybridge, FisherScientific, 3,5,7,8-tetrahydro-2-[4-(trifluoromethyl)phenyl]-4H-thiopyrano[4,3-d]pyrimidin-4-one, cat. no. RF03920, see: Huang et al., Nature, 2009, Vol. 461, pp. 614-620). Cells were incubated for 20-22 hours before assaying for luciferase (first set of triplicates: Wnt activation) and viability (second set of triplicates: cell survival for data normalisation vs Wnt-activation) using ONE-Glo (Promega, cat. no. E6110) and CellTiter-Glo (Promega, cat. no. G7570) reagents consecutively. The assay was measured using a Victor^2 plate reader. The data were normalised to the DMSO control and were expressed as % Wnt activity as a function of inhibitor dose. Dose response curves used to determine IC50 values were Log transformed and analysed by non-linear regression analysis (variable slope) using Prism (GraphPad Software, Inc).

COLO320DM cells = experiment: Tumour Cell Inhibition Assay (COLO320DM cells); type: cell-based; conditions: Homo sapiens, COLO 320DM, 120 h, five day exposure, read-out: cell inhibitory SF50 (COLO320DM)
Experimental: (§1) Tumour Cell Inhibition in Colorectal Tumour Cells
(§2) In order to determine the efficacy of acute dosing of putative TNKS inhibitors, five day exposure cell viability assays were carried out. This included the sparse seeding of cells in a 96-well plate followed by continuous dosing of cells over a five day period.
(§3) Appropriate cell lines (HT55, COLO320DM and SW620) were seeded at 500 cells/well in a 96-well plate in MEM (HT55), RPMI (COLO320DM) or DMEM (SW620) supplemented with FBS. After overnight incubation, cells were treated with the appropriate putative TNKS inhibitor in 6 or 10 concentrations ranging from 0 μM to 10 μM at 0.2% final DMSO concentration in appropriate media supplemented with 10% or 0.5% FBS. Dosages were carried out in triplicate. Termination of the assay and measurement of cell viability was achieved by the use of Cell Titre Glo reagent and luminescence measurement on an appropriate plate reader.
(§4) Dose response curves used to determine SF50 values were Log transformed and analysed by non-linear regression analysis (variable slope) using Prism (GraphPad Software, Inc).

HT55 cells = experiment: Tumour Cell Inhibition Assay (HT55 cells); type: cell-based; conditions: Homo sapiens, HT55, 120 h, read-out: cell inhibitory SF50 (HT55)
Experimental: as §1, §2, §3, §4

[1] = Tumour Cell Inhibition Assay, five day exposure

T1 sequence (O95271 1112-1317 M1266I): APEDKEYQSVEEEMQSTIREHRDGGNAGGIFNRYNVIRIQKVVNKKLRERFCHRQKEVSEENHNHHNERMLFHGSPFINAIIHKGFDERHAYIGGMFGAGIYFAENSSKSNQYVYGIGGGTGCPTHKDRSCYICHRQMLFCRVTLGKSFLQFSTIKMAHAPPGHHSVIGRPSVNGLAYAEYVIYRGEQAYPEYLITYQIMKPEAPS

## N#Cc1cccc2c(=O)[nH]c(-c3ccc(Cn4cccn4)cc3)cc12 [IQ-021]
TNKS1
  IC50: < 50 nM
Wnt signalling
  IC50: < 300 nM

## N#Cc1cccc2c(=O)[nH]c(-c3ccc(CN4CCNCC4)cc3)cc12 [IQ-050, 1-Oxo-3-(4-piperazin-1-ylmethyl-phenyl)-1,2-dihydro-isoquinoline-5-carbonitrile]
Wnt signalling
  IC50: < 300 nM

## CN1CCCN(Cc2ccc(-c3cc4c(C#N)cccc4c(=O)[nH]3)cc2)CC1 [IQ-048]
TNKS1
  IC50: < 50 nM
COLO320DM cells
  IC50: < 5 µM
HT55 cells; [1]
  IC50: < 5 µM

## CN1CCN(C(=O)Cc2ccc(-c3cc4c(C#N)cc(F)cc4c(=O)[nH]3)cc2)CC1 [IQ-036]
TNKS1
  IC50: < 50 nM
COLO320DM cells
  IC50: < 5 µM
Wnt signalling
  IC50: < 300 nM

## N#Cc1cccc2c(=O)[nH]c(-c3ccc(CN4CC5CCC(C4)N5)cc3)cc12 [IQ-003]
TNKS1
  IC50: < 100 nM
COLO320DM cells
  IC50: < 5 µM
Wnt signalling
  IC50: < 300 nM

## N#Cc1cccc2c(=O)[nH]c(-c3ccc(C(=O)N4CCNCC4)cc3)cc12 [IQ-004, 1-Oxo-3-[4-(piperazine-1-carbonyl)-phenyl]-1,2-dihydro-isoquinoline-5-carbonitrile]
TNKS1
  IC50: < 50 nM
HT55 cells; [1]
  IC50: < 5 µM

## N#Cc1cccc2c(=O)[nH]c(-c3ccc(N4CCNCC4)cc3)cc12 [IQ-054]
TNKS1
  IC50: < 50 nM
HT55 cells
  IC50: < 5 µM

## N#Cc1cccc2c(=O)[nH]c(-c3ccc(Cn4ccnc4N)cc3)cc12 [IQ-018]
TNKS1
  IC50: < 50 nM
COLO320DM cells
  IC50: < 5 µM
Wnt signalling
  IC50: < 300 nM
HT55 cells; [1]
  IC50: < 5 µM

## COCCN1CCN(C(=O)c2ccc(-c3cc4c(C#N)cccc4c(=O)[nH]3)cc2)CC1 [IQ-035]
TNKS1
  IC50: < 50 nM
COLO320DM cells
  IC50: < 5 µM
Wnt signalling
  IC50: < 300 nM

## N#Cc1cccc2c(=O)[nH]c(-c3ccc(Cn4nccn4)cc3)cc12 [IQ-027]
TNKS1
  IC50: < 100 nM
COLO320DM cells
  IC50: < 5 µM
Wnt signalling
  IC50: < 300 nM

## N#Cc1cccc2c(=O)[nH]c(-c3ccc(N4CCNCC4)nc3)cc12 [IQ-052]
TNKS1
  IC50: < 100 nM
COLO320DM cells
  IC50: < 5 µM
Wnt signalling
  IC50: < 300 nM

## Cc1nnc(NCc2ccc(-c3cc4c(C#N)cccc4c(=O)[nH]3)cc2)o1 [IQ-045, 3-{4-[5-Methyl-[1,3,4-oxadiazol-2-ylamino)methyl]phenyl}-1-oxo-1,2-dihydroisoquinoline-5-carbonitrile]
TNKS1
  IC50: < 50 nM
COLO320DM cells
  IC50: < 5 µM
Wnt signalling
  IC50: < 300 nM

## CN1CCC(N(C)C(=O)c2ccc(-c3cc4c(C#N)cccc4c(=O)[nH]3)cc2)CC1 [IQ-005]
TNKS1
  IC50: < 50 nM
COLO320DM cells
  IC50: < 5 µM
Wnt signalling
  IC50: < 300 nM

## Cc1nnc(C2CCN(Cc3ccc(-c4cc5c(C#N)cccc5c(=O)[nH]4)cc3)CC2)o1 [IQ-041]
TNKS1
  IC50: < 50 nM
Wnt signalling
  IC50: < 300 nM
HT55 cells
  IC50: < 5 µM

## N#Cc1cccc2c(=O)[nH]c(-c3ccc(Cn4ccnc4CO)cc3)cc12 [IQ-015, 3-[4-(2-Hydroxymethyl-imidazol-1-ylmethyl)-phenyl]-1-oxo-1,2-dihydro-isoquinoline-5-carbonitrile]
TNKS1
  IC50: < 50 nM
COLO320DM cells
  IC50: < 5 µM
HT55 cells; [1]
  IC50: < 5 µM

## CN1CCN(C(=O)Cc2ccc(-c3cc4c(C#N)cccc4c(=O)[nH]3)cc2)CC1 [IQ-037]
TNKS1
  IC50: < 50 nM
COLO320DM cells
  IC50: < 5 µM
Wnt signalling
  IC50: < 300 nM

## N#Cc1cccc2c(=O)[nH]c(-c3cnc(N4CCN(C(=O)C5CC5)CC4)nc3)cc12 [IQ-007, 3-[2-(4-Cyclopropanecarbonyl-piperazin-1-yl)-pyrimidin-5-yl]-1-oxo-1,2-dihydro-isoquinoline-5-carbonitrile]
TNKS1
  IC50: < 50 nM
Wnt signalling
  IC50: < 300 nM
